Converted amounts (≈) assume the structure as drawn.

One series relates to isolated atria. In words: β-Blocking activities in the isolated atria (inhibition of positive inotropic effect of isoproterenol). It is filed as cell-based, Guinea-pigs. Conditions: Cavia porcellus, read-out: fifty percent inhibitory concentration on the positive inotropic effect of isoproterenol (IC50), 1. Atria. As for the experimental part: (§1) Guinea-pigs of either sex, weighing between 400 - 700 g each, were killed by a sharp blow on the head. Their atria and trachea were quickly excised and freed of excess tissues.
1. β-Blocking activities in the isolated atria:
The isolated atria were mounted in a 30 ml organ bath filled with Krebs-Ringer-bicarbonate solution, which was constantly bubbled with a gas mixture of 95% oxygen and 5% carbon dioxide at 30° C. Spontaneous contractions of the atria were isometrically recorded on the polygraph (RM-150, Nihon Kohden Kogyo) by mean of a F-D pick-up (N. K. K.) and the number of contractions in one minute was recorded on the home-made pulse counter triggered by the atrial contractions.

A short description of the next series: in vivo. Particulars: mouse, iv, female DS mice.
The test system of another series is isolated trachea. In words: β-Blocking activities in the isolated trachea (inhibition of isoproterenol-induced relaxation of tracheal chain). It is filed as cell-based, Guinea-pigs. Conditions: Cavia porcellus, read-out: fifty percent inhibitory concentration on the relaxation of tracheal chain by isoproterenol (IC50), 2. Trachea.
Text: as §1

With `Cc1noc2cccc(OCC(O)CNC(C)C)c12` (centres unmarked) [3-methyl-4-(2-hydroxy-3-isopropylaminopropoxy)-1,2-benzisoxazole], the IC50 in the series on isolated atria was 25 ng/mL (≈ 0.0946 µM). In “in vivo”, this compound yielded an LD50 of 45 mg/kg.

In the case of `Cc1noc2cccc(OCC(O)CNC(C)(C)C)c12` (centres unmarked) [3-methyl-4-(2-hydroxy-3-tert-butylaminopropoxy)-1,2-benzisoxazole], the IC50 in the series with isolated atria worked out at 7.9 ng/mL (≈ 0.0284 µM); in the series with isolated trachea, 1.1 ng/mL (≈ 0.00395 µM). Moreover, in the series “in vivo”, the LD50 came out at 41.8 mg/kg.

Source of the values: patent US4085114A, “1,2-Benzoisoxazole derivatives and the production thereof” (Shionogi & Co., Ltd., priority 1975, dated 1978).
